Data on two compounds can be found in patent publication US6489340B1, “Macrolide compounds for inducing chondrogenic differentiation” (Fujisawa Pharmaceutical., Ltd., priority 1999, dated 2002).

This assay relates to ATDC5 cells. Nature of the assay: Induction of chondrogenic differentiation of ATDC5 cells (Alcian blue staining, proteoglycan amount). To be noted: ATDC5 cells incubated 24 days; Alcian blue dye measured at 620 nm; FK506 1-1000 ng/ml. Format: cell-based. The method, then: The inducing activity by FK506 Substance on chondrogenic differentiation was evaluated in accordance with the below-mentioned method. (1) The ATDC5 cell line provided by RIKEN Cell Bank (Tsukuba, Japan) was grown in a 1:1 mixture of Dulbecco's modified Eagle's medium and Ham's F12 medium (Nikken Biomedical Laboratory, Kyoto, Japan) supplemented with 10 % heat-inactivated fetal bovine serum (Intergen, Purchase, N.Y.). […] (2) The above ATDC5 cells were plated in 12-multiwell plastic plate at a density of 1×10^5 cells/well in the medium. After 4 hr, the medium was replaced with fresh medium containing FK506 or Cyclosporin A (CsA), and the culture was continued for a 24 days with medium change every 2 or 3 days. Cells were fixed with methanol and stained 0.1% Alcian blue (Sigma Chemical Co., St. Louis, Mo.) dissolved in 0.1 M hydrochloric acid for 16 hr at room temperature. Cells were then rinsed three times with distilled water, and the amount of cell-associated dye was measured at 620 nm after extraction with 6 M guanidine-HCl (300 μl/well). ATDC5 cells were incubated with FK506 or CsA for 24 days and the amount of proteoglycan was assayed.

As for `C=CC[C@@H]1/C=C(\C)C[C@H](C)C[C@H](OC)[C@H]2O[C@@](O)(C(=O)C(=O)N3CCCC[C@H]3C(=O)O[C@H](/C(C)=C/[C@@H]3CC[C@@H](O)[C@H](OC)C3)[C@H](C)[C@@H](O)CC1=O)[C@H](C)C[C@@H]2OC` [FK506, 17-allyl-1,14-dihydroxy-12-[2-(4-hydroxy-3-methoxycyclohexyl) -1-methylvinyl]-23,25-dimethoxy-13,19,21,27-tetramethyl-11, 28-dioxa-4-azatricyclo [22.3.1.0^4,9]octacos-18-ene-2,3,10,16-tetraone], the “inducing activity on chondrogenic differentiation (differentiation into chondrocyte; amount of proteoglycan)” value is listed as “induced differentiation into chondrocyte in a concentration-dependent manner”. In the case of Cyclosporin A [CsA], the “inducing activity on chondrogenic differentiation (differentiation into chondrocyte; amount of proteoglycan)” value is “did not induce the differentiation”.
